The results in this text go back to paper PMC6035176, “Chemo-manipulation of tumor blood vessels by a metal-based anticancer complex enhances antitumor therapy” (Scientific Reports, 2018).

The test addresses T1, Poly(ADP-Ribose) Polymerase type 1 (PARP-1) (Homo sapiens, UniProt P09874).
T1 construct: gene PARP1
As to the kind of experiment: in vitro colorimetric PARP-1 activity assay. In kind it is biochemical.

T1 sequence (P09874 2-1014): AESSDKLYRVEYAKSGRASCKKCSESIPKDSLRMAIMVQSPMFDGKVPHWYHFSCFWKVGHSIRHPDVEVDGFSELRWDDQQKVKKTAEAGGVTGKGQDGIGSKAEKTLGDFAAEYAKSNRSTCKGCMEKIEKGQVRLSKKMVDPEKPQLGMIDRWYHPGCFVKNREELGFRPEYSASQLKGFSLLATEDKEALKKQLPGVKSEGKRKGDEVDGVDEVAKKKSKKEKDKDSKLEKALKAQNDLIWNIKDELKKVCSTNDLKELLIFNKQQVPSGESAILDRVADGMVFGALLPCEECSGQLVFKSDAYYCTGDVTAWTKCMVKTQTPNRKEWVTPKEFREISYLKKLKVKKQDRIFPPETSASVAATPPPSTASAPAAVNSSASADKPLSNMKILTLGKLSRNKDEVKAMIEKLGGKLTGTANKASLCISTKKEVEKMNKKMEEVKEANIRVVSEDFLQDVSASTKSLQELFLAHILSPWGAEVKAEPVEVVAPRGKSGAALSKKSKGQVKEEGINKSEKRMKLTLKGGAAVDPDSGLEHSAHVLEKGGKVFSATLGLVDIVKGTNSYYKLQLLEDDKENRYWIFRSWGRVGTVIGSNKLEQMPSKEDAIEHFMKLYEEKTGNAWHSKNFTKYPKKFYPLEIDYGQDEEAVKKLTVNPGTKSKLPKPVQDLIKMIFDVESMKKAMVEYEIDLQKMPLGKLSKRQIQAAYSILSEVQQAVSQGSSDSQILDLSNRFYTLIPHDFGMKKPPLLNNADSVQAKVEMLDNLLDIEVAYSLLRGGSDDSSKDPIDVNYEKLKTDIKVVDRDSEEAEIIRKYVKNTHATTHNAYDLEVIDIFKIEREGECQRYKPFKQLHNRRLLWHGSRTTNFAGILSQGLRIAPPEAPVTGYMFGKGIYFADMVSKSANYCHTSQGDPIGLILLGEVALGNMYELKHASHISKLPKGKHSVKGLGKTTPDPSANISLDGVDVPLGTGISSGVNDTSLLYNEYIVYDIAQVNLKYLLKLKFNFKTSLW

One may read the IC50 as the midpoint of a concentration-inhibition curve. Read a high IC50 as lower potency. RAPTA-T: the IC50 is 400 µM.
